Results reported in ChEMBL document CHEMBL1142776, “In vitro binding of leukotriene B4 (LTB4) to human serum albumin: evidence from spectroscopic, molecular modeling, and competitive displacement studies” (Bioorg Med Chem Lett, 2005).

Target: Albumin (Homo sapiens, UniProt P02768)
Assay: In vitro Ka value against human serum albumin; N=1

Albumin, sequence (P02768 whole entry): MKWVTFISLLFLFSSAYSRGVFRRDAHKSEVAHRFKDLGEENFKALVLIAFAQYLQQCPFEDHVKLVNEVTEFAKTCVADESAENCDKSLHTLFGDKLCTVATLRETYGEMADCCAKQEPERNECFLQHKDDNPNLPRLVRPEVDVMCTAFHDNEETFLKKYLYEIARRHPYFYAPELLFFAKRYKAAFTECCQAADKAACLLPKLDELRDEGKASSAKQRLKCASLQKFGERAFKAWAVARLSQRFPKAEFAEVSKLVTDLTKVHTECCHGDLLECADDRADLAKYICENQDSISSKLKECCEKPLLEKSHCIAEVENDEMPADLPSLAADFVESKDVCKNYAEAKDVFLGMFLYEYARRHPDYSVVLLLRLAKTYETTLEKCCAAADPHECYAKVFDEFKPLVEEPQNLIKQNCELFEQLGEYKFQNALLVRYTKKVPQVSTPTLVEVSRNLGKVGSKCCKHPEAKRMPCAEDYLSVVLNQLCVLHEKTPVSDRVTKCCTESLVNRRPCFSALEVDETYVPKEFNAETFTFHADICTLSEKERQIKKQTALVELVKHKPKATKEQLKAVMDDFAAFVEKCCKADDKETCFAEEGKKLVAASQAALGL

Compound: CCCCC/C=C\C[C@@H](O)/C=C/C=C/C=C\[C@@H](O)CCCC(=O)O [LEUKOTRIENE_B4]
- Ka: 67000 M⁻¹
